Two compounds from paper PMC3789093 (Oncology Letters, 2013) can be followed below.

Holding throughout (format): biochemical
For experiment [1], the target named is T1, CYP1A1 (Homo sapiens, UniProt P04798).
T1 sequence (P04798 1-512): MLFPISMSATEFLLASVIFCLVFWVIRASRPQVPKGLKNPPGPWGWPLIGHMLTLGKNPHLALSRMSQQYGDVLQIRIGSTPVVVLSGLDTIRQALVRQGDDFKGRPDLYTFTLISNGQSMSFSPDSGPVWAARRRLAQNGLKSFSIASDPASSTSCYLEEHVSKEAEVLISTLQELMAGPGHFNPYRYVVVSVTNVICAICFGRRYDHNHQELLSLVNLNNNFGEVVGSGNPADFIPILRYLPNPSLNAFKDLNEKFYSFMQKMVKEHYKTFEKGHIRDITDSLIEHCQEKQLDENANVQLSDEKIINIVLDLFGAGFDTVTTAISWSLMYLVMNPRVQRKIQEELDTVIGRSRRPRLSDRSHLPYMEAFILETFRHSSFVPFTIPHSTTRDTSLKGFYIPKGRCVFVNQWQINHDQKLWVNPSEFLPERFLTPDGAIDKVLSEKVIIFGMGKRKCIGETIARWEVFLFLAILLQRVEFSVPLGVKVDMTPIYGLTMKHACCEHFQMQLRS
As to the kind of experiment: P450-Glo CYP1A1 luminescence assay, recombinant enzyme in microsomes.

The target in another experiment is T2, CYP1A2 (Homo sapiens, UniProt P05177).
T2 sequence (P05177 2-516): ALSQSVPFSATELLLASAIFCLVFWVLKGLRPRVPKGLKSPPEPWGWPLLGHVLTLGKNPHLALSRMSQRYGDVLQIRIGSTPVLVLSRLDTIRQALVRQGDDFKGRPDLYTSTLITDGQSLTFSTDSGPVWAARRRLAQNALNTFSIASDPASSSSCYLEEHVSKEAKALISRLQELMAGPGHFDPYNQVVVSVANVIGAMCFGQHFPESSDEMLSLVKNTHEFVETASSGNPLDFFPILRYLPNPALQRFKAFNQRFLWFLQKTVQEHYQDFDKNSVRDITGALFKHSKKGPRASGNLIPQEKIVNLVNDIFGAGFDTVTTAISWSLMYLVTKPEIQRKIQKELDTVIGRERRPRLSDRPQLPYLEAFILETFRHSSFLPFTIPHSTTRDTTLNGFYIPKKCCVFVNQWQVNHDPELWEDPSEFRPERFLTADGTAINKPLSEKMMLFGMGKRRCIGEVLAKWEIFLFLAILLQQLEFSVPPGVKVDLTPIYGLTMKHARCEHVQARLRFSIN
As to the kind of experiment: Vivid CYP450 Screening kit fluorescence assay.

The target in another experiment is CYP3A4 (Homo sapiens, UniProt P08684). As to the kind of experiment: Vivid CYP450 Screening kit fluorescence assay.
Chain of CYP3A4 (P08684 2-503): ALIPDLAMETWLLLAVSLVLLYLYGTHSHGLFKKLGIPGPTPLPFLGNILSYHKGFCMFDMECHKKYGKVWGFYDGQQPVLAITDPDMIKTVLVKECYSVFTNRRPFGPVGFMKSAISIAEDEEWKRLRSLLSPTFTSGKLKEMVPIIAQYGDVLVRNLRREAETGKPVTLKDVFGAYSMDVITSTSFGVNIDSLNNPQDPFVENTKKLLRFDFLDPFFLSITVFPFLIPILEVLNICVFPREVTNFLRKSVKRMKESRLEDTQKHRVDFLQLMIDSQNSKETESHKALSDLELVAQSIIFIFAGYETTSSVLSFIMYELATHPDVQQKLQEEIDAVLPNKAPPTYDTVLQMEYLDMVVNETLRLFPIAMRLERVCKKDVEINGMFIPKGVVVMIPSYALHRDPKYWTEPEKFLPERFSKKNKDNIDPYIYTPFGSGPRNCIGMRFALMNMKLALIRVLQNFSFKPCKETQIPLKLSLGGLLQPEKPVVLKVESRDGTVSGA
For experiment [2], the target named is T1, CYP1A1. As to the kind of experiment: P450-Glo CYP1A1 luminescence assay, positive control at […].

Turning to `CC(=O)O[C@H]1CC(C)(C)C(=C=C/C(C)=C/C=C/C(C)=C/C=C/C=C(C)/C=C/C=C(\C)C(=O)C[C@@]23O[C@]2(C)C[C@@H](O)CC3(C)C)[C@](C)(O)C1` [Fx, fucoxanthin], the figures for the IC50 at CYP1A1 [1], against CYP1A2 and at CYP3A4 were 12.5 µM, 49 µM and 11 µM, respectively.
For `COc1ccc2[nH]c([S+]([O-])Cc3ncc(C)c(OC)c3C)nc2c1` (stereo not shown) [OMP, omeprazole], at CYP1A1 [2], the “P450-Glo CYP1A1 luminescence assay, positive control at 1 μM” value was “significantly inhibited CYP1A1 activity, although the inhibition was weaker than that of omeprazole, a known CYP1A1 inhibitor”.

As usually defined, the IC50 is the concentration that gives 50% inhibition.
